Laboratory results taken from patent US20060025485A1, “Hydroxybenazamide compounds for treatment of cancer” (priority 2004, published 2006).
Entries after “also recorded” stand apart in the source; their conditions may differ. Like-named read-outs stand apart in the source and are kept apart here.

What was measured:
[1] = tested on: Panc-1 cells; assay: cell morphology after 9-day treatment, Panc-1 cells; type: cell-based; settings: Panc-1, 100 μM, 9-day cycle
Text: (§1) The results were assay using standard MTT, Western blot and cytoxocity assays.

[2] = tested on: HT-29; assay: HT-29 MTT Assay; type: cell-based; settings: HT-29, varying concentrations
[3] = tested on: hASH1; assay: Western analysis of hASH1, BON cells; type: cell-based, human; settings: 20 μM and 100 μM, 2 days
Procedure: (§2) ZM 336372 treatment. H727 and BON cells were plated at 50-60% confluence in 100 mm cell culture dishes and incubated overnight.
(§3) Western blot analysis. Cellular extracts were prepared and quantified by BCA protein assay kit (Pierce, Rockford, Ill.) as previously described (Sippel et al., 2003). 30-50 μg of denatured proteins from each sample underwent electrophoresis on a SDS-polyacrylamide gel and transferred to a nitrocellulose membranes (Schleicher and Schuell, Keene, N.H.). Membranes were blocked for 1 hr in milk solution (1×PBS, 5% non-fat dry milk, 0.05% Tween-20) and then incubated at 4° C. overnight with primary antibodies. The following primary antibody dilutions were used: phospho-ERK 1/2 (1:1,000); phospho-MEK (1:1,000); phospho-Raf-1 (Serine338) (1:1,000); p21 and p18, (1:1,000); (Cell Signal Technology, Beverly, Mass.), Chromogranin A (1:2,000; Zymed Laboratories, San Francisco, Calif.); MASH-1 (1:1000, BD Pharmingen) and G3PDH (1:10,000; Trevigen, Gaithersburg, Md.). After primary antibody incubation, membranes were washed 3×5 min in PBS-T wash buffer (1×PBS, 0.05% Tween 20). Then the membranes were incubated with either 1:2,000 dilution of goat anti-rabbit or goat anti-mouse secondary antibody (Cell Signal Technology, Beverly, Mass.) depending on the source of the primary antibody for 1 hr at room temperature. […]

[4] = tested on: p-MAPK; assay: Western blot of p-MAPK, Panc-1 cells; type: cell-based; settings: all concentrations tested
Text: as §1

[5] = tested on: HepG2 cells, a hepatocellular cancer cell line; assay: cell morphology after 9-day treatment, HepG2 cells; type: cell-based
Text: as §1

[6] = Drug toxicity assay, propidium iodide exclusion, BON cells; type: cell-based; settings: human, 63 to 500 μM, read-out: viable cells by PI exclusion
Procedure: Drug Toxicity Assay. Briefly, cells were trypsinized and plated in a 6-well plate at 1-2×10^6 in triplicate and allowed to adhere overnight. […] As a control, DMSO was added. After incubation, the media was removed and cells were trypsinized and added to removed media. Cells were incubated on ice and 2.5 μg/ml Propidium Iodide (Sigma, St. Louis, Mo.) was added five minutes before flow cytometry (Ballestrero et al., 2004). Data was acquired using a FACSCalibur benchtop flow cytometer (Becton Dickenson, San Jose, Calif.) using CellQuest acquisition and analysis software.

[7] = tested on: pMEK and p-MAPK; assay: Western blot of pMEK and p-MAPK, HepG2 cells; type: cell-based
Text: as §1

[8] = tested on: H727 pulmonary carcinoid cells; assay: cell culture pictures of H727 cells; type: cell-based, human; settings: 100 μM, days 2, 4 and 6, versus DMSO
Procedure: (§4) Cell culture. Human pulmonary carcinoid cells (NCI-H727) were obtained from American Type Culture Collection (Manassas, Va.) and human pancreatic carcinoid tumor cells, BON a generous gift of Drs. Evers and Townsend (Parekh et al., 1994), were maintained in RPMI 1640 and D-MEM-F12 media (Life Technologies, Rockville, Md.) respectively supplemented with 10% Fetal Bovine Serum (Sigma, St. Louis, Mo.), 100 IU/ml penicillin and 100 μg/ml streptomycin (Life Technologies) in a humidified atmosphere of 5% CO2 in air at 37° C. The maintenance of BON-raf cells and the activation of Raf-1 were followed as described previously (Sippel et al., 2003; Sippel and Chen, 2002; McMahon, 2001).
as §2

[9] = tested on: TT medullary thyroid cancer cells; assay: MTT assay, TT cells; type: cell-based; settings: 100 μM, versus DMSO
[10] = tested on: BON pancreatic carcinoid cells; assay: MTT cell proliferation assay, BON cells; type: cell-based, human; settings: 100 μM, to day 10, versus DMSO
Procedure: (§5) MTT Cell Proliferation Assay. […] Cells were trypsinized and plated in triplicate to 24 wells plates and allowed to adhere overnight. […] Cells were incubated and maintained with change of treatments at 2 days. Cell growth rates were analyzed after the addition of MTT reagent to the cultured cells following manufacturer's instructions. Absorbance was determined using spectrophotometer at a wave length of 540 nm.

[11] = tested on: p18; assay: Western analysis of cell cycle inhibitor p18, H727 cells; type: cell-based, human; settings: 20 μM and 100 μM, 2 days
Procedure: as §2, §3

[12] = tested on: hASH1; assay: Western analysis of hASH1, H727 cells; type: cell-based, human
Procedure: as §2, §3

[13] = tested on: BON cells
Procedure: Cells tested (H727 and BON) were harvested by trypsinization and plated at a cell density of 3,000 cells/well of each microtiter plate. Cells were grown for 4 hrs at 37° C., with 5% CO2 in a humidified incubator to allow cell attachment to occur before compound addition. […] 10 μl of each compound stock was added to duplicate microtiter plates for each cell line. The final concentration of DMSO in all wells was 1%. To test 200 μM, 2% DMSO was added to each well. Data was compared to the effect of 2% DMSO. All compounds were tested in duplicate. Cells were incubated with the test compounds for 72 hrs before reading the assay. Then processing and calculation were performed according to manufacturer's directions for Cell Titer Glo Assay (Promega, Madison, Wis.).

[14] = tested on: pMEK and p-MAPK; assay: Western blot of pMEK and p-MAPK, HT-29 cells; type: cell-based
Text: as §1

[15] = tested on: p21; assay: Western analysis of cell cycle inhibitor p21, H727 cells; type: cell-based, human; settings: 20 μM and 100 μM, 2 days
Procedure: as §2, §3

[16] = tested on: raf-1; settings: cited from earlier work
[17] = tested on: HT-29 cells, a colon cancer cell line; assay: cell morphology after 9-day treatment, HT-29 cells; type: cell-based
Text: as §1

[18] = tested on: H727 pulmonary carcinoid cells; assay: MTT cell proliferation assay, H727 cells; type: cell-based, human; settings: 100 μM, to day 16, versus DMSO
Procedure: as §5

[19] = tested on: BON pancreatic carcinoid cells; assay: cell culture pictures of BON cells; type: cell-based, human; settings: 100 μM, 4 days, versus DMSO alone
Procedure: as §4, §2

[20] = tested on: MiaPaCa-2; assay: MiaPaCa-2 MTT Assay; type: cell-based; settings: MiaPaCa-2, three concentrations

## Cc1ccc(NC(=O)c2cccc(N(C)C)c2)cc1NC(=O)c1ccc(O)cc1 [ZM336372, N-[5-(dimethyl-aminobensamido)-2-methylphenyl]-4-hydroxybenzamide]
[1]
  cell death: significant cell death
[2]
  cellular proliferation (MTT): effects at low concentrations; also recorded: effective at decreasing cellular proliferation
[3]
  hASH1 level: reduction in both CgA and hASH1; also recorded: dose dependent decrease
[4]
  p-MAPK level: increase in p-MAPK following treatment at all concentrations tested
[5]; HepG2, 100 μM, 9-day cycle
  cell death: significant cell death
[5]; HepG2, 50 microM, day 9, versus DMSO control
  cell growth in culture: clear difference in cell growth
[5]; HepG2, low concentrations, 9-day cycle
  cytopathology: cytopathology at low concentrations
[6]
  viability at 2 days: ~70%
[7]
  p-MAPK level: increase in the levels of both pMEK and p-MAPK
  pMEK level: increase in the levels of both pMEK and p-MAPK
[8]
  growth of H727 cells in culture: never reached confluence; also recorded: clear difference in growth; also recorded: paucity of cells reaching confluence
[9]
  growth of TT cells (MTT): clear suppression of growth
[10]
  BON cell proliferation/metabolism (MTT): lack of cell metabolism; also recorded: clear suppression of growth; also recorded: growth suppression occurred as early as day 4 and was maintained out to day 10; also recorded: inhibited
[11]
  p18 expression: induced; also recorded: significant induction
[12]; 20 μM and 100 μM, 2 days
  hASH1 level: reduction in both CgA and hASH1; also recorded: dose dependent decrease
[12]; 100 μM, 10 minutes to 48 hours
  time of first recognized reduction of hASH1: 1 h
[13]
  IC50 (cytotoxicity): did not produce enough cellular cytotoxicity to estimate an IC50
[14]
  p-MAPK level: increase in the levels of both pMEK and p-MAPK
  pMEK level: increase in the levels of both pMEK and p-MAPK
[15]
  p21 expression: induced; also recorded: significant induction
[16]; COS1 cells
  activation of raf-1: > 100 fold
[16]; NIH3T3 cells
  activation of raf-1: > 100 fold
[16]; PC12 cells
  activation of raf-1: > 100 fold
[16]; Swiss 3T3 cells
  raf-1 activation compared with EGF stimulation: much higher than that attained after stimulation with epidermal growth factor (EGF)
  time for which induction of raf-1 was sustained: at least 3 hours
  time of exposure after which induction of raf-1 occurred: 60 min
[16]; human 293 cells
  activation of raf-1: > 100 fold
[17]; HT-29, 100 μM, 9-day cycle
  cell death: significant cell death
[17]; HT-29, 50 microM, day 9, versus control
  number of cells in culture: dramatic difference in the number of cells present at day 9
[17]; HT-29, low concentrations, 9-day cycle
  cytopathology: cytopathology at low concentrations
[18]
  H727 cell proliferation (MTT): clear suppression of growth; also recorded: growth suppressed; also recorded: inhibited
[19]
  growth of BON cells in culture: dramatic growth arrest; also recorded: clear difference in growth
[20]
  cellular proliferation (MTT): inhibition at the highest concentration; also recorded: reduction of cellular proliferation
